± gives the expanded uncertainty stated by the source.
Test: molar heat capacity at constant pressure
Conditions: 101.33 kPa, Crystal, Small (less than 1 g) adiabatic calorimetry

C[C@@H](O)[C@H](N)C(=O)O [L-threonine]
Conditions	molar heat capacity at constant pressure [J/K/mol]
145.26 K	88.8 ± 0.67
146.21 K	89.13 ± 0.67
147.15 K	89.63 ± 0.67
148.1 K	90.13 ± 0.67
149.05 K	90.63 ± 0.67
150 K	90.96 ± 0.67
150.93 K	91.38 ± 0.67
151.88 K	91.87 ± 0.67
152.83 K	92.21 ± 0.67
153.78 K	92.79 ± 0.67
154.71 K	93.21 ± 0.67
155.66 K	93.7 ± 0.67
156.61 K	94.2 ± 0.67
157.55 K	94.54 ± 0.67
158.5 K	94.87 ± 0.67
159.44 K	95.37 ± 0.67
160 K	95.62 ± 0.67
160.38 K	95.7 ± 0.75
161.33 K	96.12 ± 0.75
162.27 K	96.7 ± 0.75
163.21 K	97.03 ± 0.75
164.16 K	97.53 ± 0.75
165.1 K	98.03 ± 0.75
166.02 K	98.36 ± 0.75
166.96 K	98.78 ± 0.75
167.9 K	99.11 ± 0.75
168.84 K	99.69 ± 0.75
169.78 K	100.02 ± 0.75
170 K	100.19 ± 0.83
170.72 K	100.44 ± 0.75
171.66 K	100.85 ± 0.75
172.6 K	101.27 ± 0.75
173.54 K	101.6 ± 0.75
174.48 K	102.1 ± 0.75
175.42 K	102.6 ± 0.75
176.34 K	103.02 ± 0.75
177.28 K	103.43 ± 0.75
178.21 K	103.76 ± 0.75
179.15 K	104.35 ± 0.75
180 K	104.6 ± 0.83
180.08 K	104.6 ± 0.75
180.99 K	104.93 ± 0.75
181.93 K	105.34 ± 0.75
182.86 K	105.84 ± 0.75
183.79 K	106.34 ± 0.75
184.73 K	106.67 ± 0.75
185.66 K	107.09 ± 0.75
186.59 K	107.51 ± 0.75
187.52 K	107.92 ± 0.75
188.45 K	108.25 ± 0.83
189.38 K	108.75 ± 0.83
190 K	109 ± 0.83
190.32 K	109.09 ± 0.83
191.25 K	109.5 ± 0.83
192.18 K	110 ± 0.83
193.1 K	110.25 ± 0.83
194.03 K	110.67 ± 0.83
194.96 K	111.08 ± 0.83
195.86 K	111.5 ± 0.83
196.79 K	111.83 ± 0.83
197.72 K	112.33 ± 0.83
198.65 K	112.66 ± 0.83
199.57 K	112.99 ± 0.83
200 K	113.33 ± 0.83
200.62 K	113.49 ± 0.83
201.78 K	114.07 ± 0.83
202.93 K	114.57 ± 0.83
204.09 K	115.07 ± 0.83
205.25 K	115.65 ± 0.83
206.41 K	116.15 ± 0.83
207.57 K	116.57 ± 0.83
208.73 K	117.07 ± 0.83
209.9 K	117.57 ± 0.83
210 K	117.57 ± 0.83
211.06 K	118.07 ± 0.83
212.23 K	118.65 ± 0.83
213.35 K	119.06 ± 0.83
214.52 K	119.56 ± 0.83
215.69 K	119.98 ± 0.83
216.86 K	120.48 ± 0.83
218.03 K	120.89 ± 0.83
219.2 K	121.47 ± 0.91
220 K	121.81 ± 0.83
220.37 K	121.97 ± 0.91
221.54 K	122.56 ± 0.91
222.71 K	122.97 ± 0.91
223.89 K	123.47 ± 0.91
225.06 K	123.97 ± 0.91
226.24 K	124.55 ± 0.91
227.41 K	125.05 ± 0.91
228.59 K	125.47 ± 0.91
229.77 K	125.96 ± 0.91
230 K	126.13 ± 1
230.95 K	126.38 ± 0.91
232.1 K	126.96 ± 0.91
233.28 K	127.54 ± 0.91
234.46 K	128.29 ± 0.91
235.64 K	128.62 ± 0.91
236.82 K	129.04 ± 0.91
238 K	129.62 ± 0.91
239.18 K	130.04 ± 0.91
240 K	130.37 ± 1
240.37 K	130.54 ± 0.91
241.55 K	131.04 ± 0.91
242.74 K	131.45 ± 0.91
243.92 K	132.03 ± 0.91
245.11 K	132.53 ± 0.91
246.3 K	132.95 ± 0.91
247.49 K	133.61 ± 1
248.68 K	134.03 ± 1
249.87 K	134.53 ± 1
250 K	134.69 ± 1
251.05 K	134.94 ± 1
252.25 K	135.36 ± 1
253.44 K	135.86 ± 1
254.64 K	136.69 ± 1
255.83 K	137.11 ± 1
257.02 K	137.94 ± 1
258.22 K	138.44 ± 1
259.42 K	138.77 ± 1
260 K	138.93 ± 1
260.62 K	139.27 ± 1
261.82 K	139.85 ± 1
263.02 K	140.35 ± 1
264.22 K	140.68 ± 1
265.42 K	141.43 ± 1
266.63 K	142.01 ± 1
267.84 K	142.43 ± 1
269.05 K	142.93 ± 1
270 K	143.26 ± 1
270.25 K	143.34 ± 1
271.46 K	144.09 ± 1
272.67 K	144.42 ± 1
273.88 K	145.17 ± 1
275.09 K	145.5 ± 1
276.3 K	145.92 ± 1
277.52 K	146.42 ± 1.1
278.73 K	146.83 ± 1.1
279.95 K	147.5 ± 1.1
280 K	147.58 ± 1
281.17 K	147.91 ± 1.1
282.39 K	148.5 ± 1.1
283.61 K	149 ± 1.1
284.84 K	149.49 ± 1.1
286.06 K	149.99 ± 1.1
287.29 K	150.57 ± 1.1
288.48 K	151.16 ± 1.1
289.71 K	151.74 ± 1.1
290 K	151.82 ± 1
290.94 K	152.24 ± 1.1
292.17 K	152.65 ± 1.1
293.4 K	153.57 ± 1.1
294.63 K	153.65 ± 1.1
295.86 K	154.4 ± 1.1
297.1 K	154.82 ± 1.1
298.15 K	155.31 ± 1.2
298.33 K	155.4 ± 1.1
299.57 K	155.98 ± 1.1
300 K	155.98 ± 1.2
301.28 K	156.31 ± 1.1
303.43 K	157.14 ± 1.1
305.56 K	157.97 ± 1.1
307.69 K	158.56 ± 1.1
309.8 K	159.55 ± 1.2
310 K	159.55 ± 1.2
311.9 K	160.3 ± 1.2
313.99 K	161.13 ± 1.2
316.05 K	161.88 ± 1.2
318.12 K	162.8 ± 1.2
320 K	163.46 ± 1.2
320.16 K	163.55 ± 1.2
322.2 K	164.21 ± 1.2
324.22 K	164.88 ± 1.2
326.23 K	165.71 ± 1.2
328.22 K	166.29 ± 1.2
330 K	166.87 ± 1.2
330.18 K	166.95 ± 1.2
332.14 K	167.54 ± 1.2
333.96 K	168.2 ± 1.2
335.89 K	168.95 ± 1.2
337.81 K	169.7 ± 1.2
339.72 K	170.36 ± 1.2
340 K	170.61 ± 1.2
341.6 K	171.28 ± 1.2
343.43 K	172.36 ± 1.2
345.28 K	172.77 ± 1.2
347.12 K	173.69 ± 1.2
348.93 K	174.44 ± 1.2
350 K	174.94 ± 1.2
350.73 K	175.19 ± 1.2
352.45 K	175.85 ± 1.2
354.22 K	176.68 ± 1.2
355.96 K	177.35 ± 1.2
357.68 K	177.93 ± 1.2
359.39 K	178.59 ± 1.2
360 K	178.76 ± 1.2
361.08 K	179.26 ± 1.2
362.43 K	179.59 ± 1.2
364.01 K	180.17 ± 1.2
365.64 K	180.84 ± 1.2
367.26 K	181.17 ± 1.2
368.85 K	181.84 ± 1.2
370 K	182.25 ± 1.3
370.42 K	182.5 ± 1.2
371.97 K	182.83 ± 1.2

Source: the NIST ThermoML archive (doi:10.1016/j.jct.2017.09.022)
